Where two headings read alike, the source gives them in different places.
Experiments:
[1] = tested on: subjects diagnosed with calciphylaxis; experiment: MK-7 and/or MKH2-7 in subjects diagnosed with calciphylaxis (Example 2); assay type: in vivo, human; details: 10 mg, 25 mg or 50 mg orally once daily; contemplated
Description: This example describes the administration of MK-7 and/or MKH2-7 to subjects diagnosed with calciphylaxis. Typical symptoms include presentation of characteristic painful skin lesions (Nigwekar et al. (2015) “Calciphylaxis: Risk Factors, Diagnosis, and Treatment.” Am. J. Kidney Dis. 66:133-46). Definitive diagnosis of calciphylaxis is achieved via skin biopsy (Nigwekar, 2015 supra). Further conditions need to be considered for correct diagnosis (Id.).
(§1) Subjects diagnosed with calciphylaxis orally receive MK-7 and/or MKH2-7 at 10 mg, 25 mg or 50 mg once daily for at least 2 weeks, 4 weeks, 6 weeks, 8 weeks, 3 months, 6 months, 1 year, or indefinitely. The dosage form is a 10 mg or 25 mg soft-gel capsule. Two 25 mg capsules are administered once daily to the 50 mg dosage cohort.
The arrest of, or decreases in lesion size and frequency is contemplated to be an indication of successful treatment.
Additionally, because calciphylaxis has a considerable mortality risk, increased overall survival time of diagnosed subjects will be an indication of treatment success. It is contemplated that administration of MK-7 and/or MKH2-7 according to the foregoing will result in an increased overall survival time of diagnosed subjects.

[2] = tested on: subjects at risk of development of calciphylaxis; experiment: MK-7 and/or MKH2-7 in subjects at risk for development of calciphylaxis (Example 1); assay type: in vivo, human; details: 10 mg, 25 mg or 50 mg orally once daily; blood samples; contemplated
Description: This example describes the administration of MK-7 and/or MKH2-7 to subjects at risk for development of calciphylaxis, but who have not yet developed the characteristic skin lesions of calciphylaxis. Risk factors to be considered include, but are not limited to, diabetes mellitus, obesity, ESRD and/or hemodialysis, and prior treatment with warfarin (Nigwekar et al. (2016), supra). It is contemplated that administration of MK-7 and/or MKH2-7 can result in protection of the subjects from skin lesions and a change in certain biomarker levels indicative of the prevention of the development of calciphylaxis.
as §1, with “at risk of development of” for “diagnosed with”, “are be” for “are”
It should be noted that not all subjects with elevated risk factors for calciphylaxis will develop the characteristic skin lesions of calciphylaxis. The intent of treating with MK-7 and/or MKH2-7 proactively (prior to a clinical diagnosis of calciphylaxis) is the prevention of lesion appearance. Thus, a drop in frequency of, or elimination of lesion appearances is contemplated to be a successful treatment.
Several biomarkers can be assessed to determine the efficacy of MK-7 and/or MKH2-7 at the three dose levels. Exemplary biomarkers include PIVKA-II; uncarboxylated and total Matrix Gla Protein (MGP); uncarboxylated, carboxylated and total osteocalcin protein; uncarboxylated, carboxylated and total Protein C, osteoprotegerin, Fetuin A and hs-CRP.
Blood samples are obtained to measure the biomarkers according to the following schedule. Blood sampling can occur during treatment on a weekly or monthly basis. It is contemplated that administration of MK-7 and/or MKH2-7 will result in (i) an increase in PIVKA-II, osteoprotegerin, or Fetuin A, which is indicative of slowing the progression of, arresting, or reversing, calciphylaxis, (ii) a decrease in uncarboxylated MGP, uncarboxylated osteocalcin, and/or uncarboxylated Protein C, which is indicative of slowing the progression of, arresting, or reversing calciphylaxis.
Further, pulse wave velocity (PWV) can be measured to assess arterial compliance. Improved vascular compliance will be indicative of slowing the progression of, arresting, or reversing calciphylaxis.

osteocalcin = details: 100-200 μg/d for 4 to 12 weeks; significantly and in a dose-dependent manner; cited from earlier work
[3] = tested on: subjects with ESRD receiving hemodialysis; experiment: MK-7 in subjects with stable ESRD receiving hemodialysis: biomarker changes day 1 to day 15; assay type: in vivo, human; details: 10 mg capsule of MK-7 per day orally for 14 days; change between day 1 and day 15
Experimental: This example describes the administration of MK-7 to subjects with ESRD receiving hemodialysis, and who are at risk of developing calciphylaxis. Administration of MK-7 can result in a change in certain biomarker levels indicative of the prevention of the development of calciphylaxis, or in the arrest or slowing down of the development of calciphylaxis. A number of subjects with stable ESRD but without calciphylaxis are enrolled in the study, whereupon the subjects orally receive a 10 mg capsule of MK-7 per day for 14 days. The levels of certain biomarkers, including uncarboxylated Matrix Gla Protein (MGP), uncarboxylated osteocalcin, osteoprotegerin, Fetuin A and hs-CRP were assessed on day 1 and on day 15 (the end of treatment), and the changes between day 1 and day 15 were calculated.

[4] = tested on: adult hemodialysis patients; details: cited from earlier work
[5] = vitamin K2 supplementation, hemodialysis patients

With `CC(C)=CCC/C(C)=C/CC/C(C)=C/CC/C(C)=C/CC/C(C)=C/CC/C(C)=C/CC/C(C)=C/Cc1c(C)c(O)c2ccccc2c1O` [MKH2-7, 2-[(2E,6E,10E,14E,18E,22E)-3,7,11,15,19,23,27-heptamethyloctacosa-2,6,10,14,18,22,26-heptaenyl]-3-methylnaphthalene-1,4-diol] the “overall survival time of diagnosed subjects” value [1] was “increased”, the “Fetuin A” value [2] was “increase” and the PIVKA-II [2] was “increase”. The osteoprotegerin [2] was “increase”, the “uncarboxylated MGP” value [2] was “decrease” and the “uncarboxylated Protein C” value [2] was “decrease”. For the same molecule, the uncarboxylated osteocalcin [2] was “decrease”.
For `CC(C)=CCC/C(C)=C/CC/C(C)=C/CC/C(C)=C/CC/C(C)=C/CC/C(C)=C/CC/C(C)=C/CC1=C(C)C(=O)c2ccccc2C1=O` [MK-7, 2-[(2E,6E,10E,14E,18E,22E)-3,7,11,15,19,23,27-heptamethyloctacosa-2,6,10,14,18,22,26-heptaenyl]-3-methylnaphthalene-1,4-dione], the “overall survival time of diagnosed subjects” value [1] is listed as “increased”, the “ratio of carboxylated to undercarboxylated osteocalcin” value (osteocalcin) is listed as “increase” and the “average increase in Fetuin A” value [3] is listed as 23.1%. For the same molecule, the “average increase in osteoprotegerin” value [3] was 14.5%, the “average reduction in hs-CRP” value [3] was −35.8% and the “average reduction in uncarboxylated MGP” value [3] was −21.9%. For the same molecule, the “average reduction in uncarboxylated osteocalcin” value [3] was −55.5%, the “response rate in the reduction in dp-ucMGP levels” value ([4]; group receiving 135 μg of menaquinone-7) was 77% and the “response rate in the reduction in dp-ucMGP levels” value ([4]; group receiving 360 μg of menaquinone-7) was 93%. The “Fetuin A” value [2] was “increase”, the PIVKA-II [2] was “increase” and the osteoprotegerin [2] was “increase”. The “uncarboxylated MGP” value [2] was “decrease”, the “uncarboxylated Protein C” value [2] was “decrease” and the uncarboxylated osteocalcin [2] was “decrease”.
For Vitamin K2, the “circulating PIVKA-II levels” value [4, 5] is listed as “dose- and time-dependent decrease”, the “circulating dp-ucMGP levels” value [4, 5] is listed as “dose- and time-dependent decrease” and the “circulating uncarboxylated osteocalcin levels” value [4, 5] is listed as “dose- and time-dependent decrease”.

Source: patent US12433854B2, “Methods and compositions for preventing or treating calciphylaxis” (Epizon Pharma, Inc., priority 2018, dated 2025)
